Test results reported in ChEMBL document CHEMBL4373695, “Structure-Based Design of 5-Methylpyrimidopyridone Derivatives as New Wild-Type Sparing Inhibitors of the Epidermal Growth Factor Receptor Triple Mutant (EGFRL858R/T790M/C797S)” (J Med Chem, 2019).
Calls of active or inactive are those of the source. The calls are words filed in the database; no cut-off is given here.

Assays:
[1] = target: T1, Epidermal growth factor receptor (Homo sapiens, UniProt P00533); assay: Inhibition of wild-type EGFR (unknown origin) using Poly(Glu,Tyr) 4:1 as substrate after 60 mins by ELISA
[2] = target: Epidermal growth factor receptor (Homo sapiens, UniProt P00533, C797S/L858R/T790M); assay: (§1) Inhibition of human C-terminal His-tagged and N-terminal GST-tagged EGFR L858R/T790M/C797S triple mutant ( 668 to 1210 amino acids) expressed in baculovirus infected Sf9 insect cells using Poly(Glu,Tyr) 4:1 as substrate after 60 mins by ELISA
[3] = target: Epidermal growth factor receptor (Homo sapiens, UniProt P00533, T790M/C797S/L858R); assay: as §1; details: sf9
[4] = Aqueous solubility of the compound at 2 mg at pH 7.4 after 24 hrs by LC-MS/MS analysis; assay type: physicochemical; details: pH 7.4, 24 h
[5] = Permeability of the compound in human Caco2 cells at 10 uM after 120 mins by LC-MS/MS analysis; assay type: ADME, cell-based; details: caco-2, 2 h
[6] = target: T1, Epidermal growth factor receptor; assay: Inhibition of wild-type EGFR (unknown origin) transfected in human A431 cells assessed as reduction in EGF-induced EGFR phosphorylation at 0.1 to 3 uM by Western blot analysis; assay type: cell-based
[7] = system: Epidermal growth factor receptor (Homo sapiens), P00533 [L858R,T790M,C797S]; assay: Inhibition of EGFR L858R/T790M/C797S triple mutant (unknown origin) transfected in mouse BAF3 cells assessed as reduction in EGF-induced EGFR phosphorylation at 0.1 to 3 uM by Western blot analysis; assay type: cell-based
BaF3 = assay: Antiproliferative activity against mouse BAF3 cells harboring EGFR L858R/T790M/C797S triple mutant after 72 hrs by resazurin dye-based fluorescence assay; assay type: functional, cell-based; details: BaF3, 72 h
[8] = Metabolic stability in rat liver microsomes preincubated for 5 mins followed by NADPH addition and measured after 5 to 45 mins by LC/MS analysis; assay type: ADME, Microsome

Epidermal growth factor receptor (Homo sapiens, UniProt P00533, C797S/L858R/T790M), sequence (P00533 25-1210 T790M/C797S/L858R limits assumed): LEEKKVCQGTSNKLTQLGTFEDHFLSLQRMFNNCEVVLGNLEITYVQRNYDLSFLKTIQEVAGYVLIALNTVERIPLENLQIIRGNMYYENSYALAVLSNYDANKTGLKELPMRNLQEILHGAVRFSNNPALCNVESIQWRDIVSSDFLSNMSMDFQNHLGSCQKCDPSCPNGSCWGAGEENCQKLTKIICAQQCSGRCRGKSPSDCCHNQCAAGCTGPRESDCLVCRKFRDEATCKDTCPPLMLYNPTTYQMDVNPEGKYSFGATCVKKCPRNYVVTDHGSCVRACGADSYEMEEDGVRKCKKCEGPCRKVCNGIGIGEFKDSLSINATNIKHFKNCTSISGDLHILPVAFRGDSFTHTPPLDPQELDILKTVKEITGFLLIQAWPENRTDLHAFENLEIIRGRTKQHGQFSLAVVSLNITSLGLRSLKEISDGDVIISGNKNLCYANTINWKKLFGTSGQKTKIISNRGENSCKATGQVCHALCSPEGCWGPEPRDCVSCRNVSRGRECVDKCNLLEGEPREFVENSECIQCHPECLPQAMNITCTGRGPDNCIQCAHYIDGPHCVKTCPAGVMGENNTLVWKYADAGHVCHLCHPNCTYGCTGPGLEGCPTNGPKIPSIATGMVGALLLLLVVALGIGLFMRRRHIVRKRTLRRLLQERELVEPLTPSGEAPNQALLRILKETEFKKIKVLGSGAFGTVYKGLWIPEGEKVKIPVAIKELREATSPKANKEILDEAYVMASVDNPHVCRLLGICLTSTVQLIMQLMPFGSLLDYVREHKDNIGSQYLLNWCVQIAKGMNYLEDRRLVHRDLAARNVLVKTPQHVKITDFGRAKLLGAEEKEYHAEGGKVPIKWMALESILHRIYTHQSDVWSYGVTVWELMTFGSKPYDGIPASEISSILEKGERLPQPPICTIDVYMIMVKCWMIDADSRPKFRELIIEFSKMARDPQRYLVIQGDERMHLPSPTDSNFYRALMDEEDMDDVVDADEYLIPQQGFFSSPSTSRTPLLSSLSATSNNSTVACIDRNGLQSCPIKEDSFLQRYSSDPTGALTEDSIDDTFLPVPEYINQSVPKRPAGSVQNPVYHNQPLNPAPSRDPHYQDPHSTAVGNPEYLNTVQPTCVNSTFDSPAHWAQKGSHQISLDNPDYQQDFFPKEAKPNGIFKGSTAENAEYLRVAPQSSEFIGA
T1 sequence (P00533 whole entry, the tested form may be a part): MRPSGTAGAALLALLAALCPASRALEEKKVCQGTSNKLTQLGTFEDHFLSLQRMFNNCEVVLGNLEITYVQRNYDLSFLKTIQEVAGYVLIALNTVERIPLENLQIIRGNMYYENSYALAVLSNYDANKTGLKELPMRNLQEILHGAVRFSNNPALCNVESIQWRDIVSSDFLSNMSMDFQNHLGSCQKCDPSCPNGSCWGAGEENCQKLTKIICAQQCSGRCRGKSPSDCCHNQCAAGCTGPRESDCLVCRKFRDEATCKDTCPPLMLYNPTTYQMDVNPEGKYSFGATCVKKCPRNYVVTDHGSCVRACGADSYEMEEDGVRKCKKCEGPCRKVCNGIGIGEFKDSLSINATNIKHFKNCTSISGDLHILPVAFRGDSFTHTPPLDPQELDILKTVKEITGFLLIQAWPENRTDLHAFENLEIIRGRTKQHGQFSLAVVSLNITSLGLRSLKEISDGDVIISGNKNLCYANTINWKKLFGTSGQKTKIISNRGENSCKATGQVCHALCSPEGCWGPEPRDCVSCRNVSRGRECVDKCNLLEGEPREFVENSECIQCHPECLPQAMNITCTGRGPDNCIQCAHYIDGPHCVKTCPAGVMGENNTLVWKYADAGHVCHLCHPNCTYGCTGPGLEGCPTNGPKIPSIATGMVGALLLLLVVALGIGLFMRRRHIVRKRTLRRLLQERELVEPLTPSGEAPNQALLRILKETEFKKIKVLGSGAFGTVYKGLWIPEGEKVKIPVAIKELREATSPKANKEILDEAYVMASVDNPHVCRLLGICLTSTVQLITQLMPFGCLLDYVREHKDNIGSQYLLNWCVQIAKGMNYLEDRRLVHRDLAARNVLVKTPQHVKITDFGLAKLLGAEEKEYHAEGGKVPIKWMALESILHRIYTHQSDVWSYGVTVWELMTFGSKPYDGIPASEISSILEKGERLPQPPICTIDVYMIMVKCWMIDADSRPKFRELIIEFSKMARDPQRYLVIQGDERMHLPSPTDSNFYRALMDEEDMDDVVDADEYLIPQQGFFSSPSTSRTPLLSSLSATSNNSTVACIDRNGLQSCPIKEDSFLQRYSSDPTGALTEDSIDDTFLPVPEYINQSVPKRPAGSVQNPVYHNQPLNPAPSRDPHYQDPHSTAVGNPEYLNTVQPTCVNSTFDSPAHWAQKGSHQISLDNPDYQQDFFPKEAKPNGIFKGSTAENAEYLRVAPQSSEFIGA
Epidermal growth factor receptor (Homo sapiens), P00533 [L858R,T790M,C797S], sequence (P00533 whole entry T790M/C797S/L858R): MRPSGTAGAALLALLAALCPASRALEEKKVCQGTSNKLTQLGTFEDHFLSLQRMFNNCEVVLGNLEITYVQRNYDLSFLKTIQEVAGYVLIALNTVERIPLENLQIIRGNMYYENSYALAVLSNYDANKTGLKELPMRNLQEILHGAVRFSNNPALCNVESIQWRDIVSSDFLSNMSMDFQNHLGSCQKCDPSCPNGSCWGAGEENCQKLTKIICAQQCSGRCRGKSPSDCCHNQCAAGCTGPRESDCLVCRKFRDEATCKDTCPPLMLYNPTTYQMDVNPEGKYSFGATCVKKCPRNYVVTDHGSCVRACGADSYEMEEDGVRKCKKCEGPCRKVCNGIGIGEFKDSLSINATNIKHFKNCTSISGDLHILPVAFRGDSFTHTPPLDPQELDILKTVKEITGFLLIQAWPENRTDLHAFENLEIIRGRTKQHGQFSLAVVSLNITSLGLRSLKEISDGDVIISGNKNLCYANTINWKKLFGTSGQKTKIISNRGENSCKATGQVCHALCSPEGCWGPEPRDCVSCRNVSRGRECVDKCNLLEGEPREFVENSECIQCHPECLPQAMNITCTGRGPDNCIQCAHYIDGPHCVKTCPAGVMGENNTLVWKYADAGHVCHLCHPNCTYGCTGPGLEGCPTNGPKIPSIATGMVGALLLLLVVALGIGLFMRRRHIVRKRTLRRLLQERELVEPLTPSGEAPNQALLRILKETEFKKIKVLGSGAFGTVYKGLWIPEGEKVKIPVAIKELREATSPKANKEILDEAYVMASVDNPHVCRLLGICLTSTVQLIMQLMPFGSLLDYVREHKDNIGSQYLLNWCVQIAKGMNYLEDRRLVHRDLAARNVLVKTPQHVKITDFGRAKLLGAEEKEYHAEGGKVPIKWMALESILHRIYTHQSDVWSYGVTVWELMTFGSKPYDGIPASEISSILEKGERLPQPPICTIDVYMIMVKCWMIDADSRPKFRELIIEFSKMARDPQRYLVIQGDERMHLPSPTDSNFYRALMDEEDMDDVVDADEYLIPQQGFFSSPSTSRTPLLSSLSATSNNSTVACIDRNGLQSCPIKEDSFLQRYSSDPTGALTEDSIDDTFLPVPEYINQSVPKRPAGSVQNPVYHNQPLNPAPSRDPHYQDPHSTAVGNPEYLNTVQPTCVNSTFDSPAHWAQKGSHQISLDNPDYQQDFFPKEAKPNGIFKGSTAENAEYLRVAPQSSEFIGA
Epidermal growth factor receptor (Homo sapiens, UniProt P00533, T790M/C797S/L858R), sequence (P00533 25-1210 T790M/C797S/L858R limits assumed): as the sequence (P00533 25-1210 T790M/C797S/L858R limits assumed) above

SMILES | IC50 [1] [µM] | IC50 [2] [µM] | other results
N#Cc1ccc(O)c(-c2nc(NCc3cnccn3)c3ccccc3n2)c1 | > 1 | 0.0387 | 
CCC(=O)N1CCC[C@@H](n2c(=O)c(-c3ccccc3)c(C)c3cnc(Nc4ccc(N5CCN(C)CC5)c(C)c4)nc32)C1 | > 1 | > 1 | 
CCC(=O)N1CCC[C@@H](n2c(=O)c(-c3ccc(Cl)cc3)c(C)c3cnc(Nc4ccc(N5CCN(C)CC5)c(C)c4)nc32)C1 | > 1 | > 1 | 
CCC(=O)N1CCC[C@@H](n2c(=O)c(-c3cccc(Cl)c3)c(C)c3cnc(Nc4ccc(N5CCN(C)CC5)c(C)c4)nc32)C1 | > 1 | > 1 | 
CCC(=O)N[C@H]1CC[C@@H](n2c(=O)c(-c3ccccc3Cl)c(C)c3cnc(Nc4ccc(N5CCN(C)CC5)c(C)c4)nc32)CC1 (stereo in doubt; 8c-A) | > 1 | 0.519 | 
CCC(=O)N[C@H]1CC[C@@H](n2c(=O)c(-c3ccccc3Cl)c(C)c3cnc(Nc4ccc(N5CCN(C)CC5)c(C)c4)nc32)CC1 (stereo in doubt; 8c-B) | 0.169 | 0.0277 | 
CCC(=O)N1CCC[C@H](n2c(=O)c(-c3ccccc3Cl)c(C)c3cnc(Nc4ccc(N5CCN(C)CC5)c(C)c4)nc32)C1 (stereo in doubt; 8e-A) | > 1 | > 1 | 
CCC(=O)N1CCC[C@H](n2c(=O)c(-c3ccccc3Cl)c(C)c3cnc(Nc4ccc(N5CCN(C)CC5)c(C)c4)nc32)C1 (stereo in doubt; 8e-B) | > 1 |  | IC50 [3]: > 1 µM
CCC(=O)N1CCC[C@@H](n2c(=O)c(-c3ccccc3Cl)c(C)c3cnc(Nc4ccc(N5CCN(C)CC5)c(C)c4)nc32)C1 (stereo in doubt; 8f-A) | > 1 | > 1 | 
CCC(=O)N1CCC[C@@H](n2c(=O)c(-c3ccccc3Cl)c(C)c3cnc(Nc4ccc(N5CCN(C)CC5)c(C)c4)nc32)C1 (stereo in doubt; 8f-B) | > 1 | 0.0651 | 
CCC(=O)N1CC[C@@H](n2c(=O)c(-c3ccccc3Cl)c(C)c3cnc(Nc4ccc(N5CCN(C)CC5)c(C)c4)nc32)C1 (stereo in doubt; 8g-A) | > 1 | > 1 | 
CCC(=O)N1CC[C@@H](n2c(=O)c(-c3ccccc3Cl)c(C)c3cnc(Nc4ccc(N5CCN(C)CC5)c(C)c4)nc32)C1 (stereo in doubt; 8g-B) | > 1 | 0.0817 | 
CCC(=O)N1CCC[C@@H](n2c(=O)c(-c3ccccc3Br)c(C)c3cnc(Nc4ccc(N5CCN(C)CC5)c(C)c4)nc32)C1 (stereo in doubt; 8l-A) | > 1 | 0.498 | 
CCC(=O)N1CCC[C@@H](n2c(=O)c(-c3ccccc3Br)c(C)c3cnc(Nc4ccc(N5CCN(C)CC5)c(C)c4)nc32)C1 (stereo in doubt; 8l-B) | > 1 | 0.0561 | 
CCC(=O)N1CCC[C@@H](n2c(=O)c(-c3ccccc3C)c(C)c3cnc(Nc4ccc(N5CCN(C)CC5)c(C)c4)nc32)C1 (stereo in doubt; 8m-A) | > 1 | 0.588 | 
CCC(=O)N1CCC[C@@H](n2c(=O)c(-c3ccccc3C)c(C)c3cnc(Nc4ccc(N5CCN(C)CC5)c(C)c4)nc32)C1 (stereo in doubt; 8m-B) | > 1 | 0.228 | 
CCC(=O)N1CCC[C@@H](n2c(=O)c(-c3cc(F)ccc3Cl)c(C)c3cnc(Nc4ccc(N5CCN(C)CC5)c(C)c4)nc32)C1 (stereo in doubt; 8p-A) | > 1 | 0.207 | 
CCC(=O)N1CCC[C@@H](n2c(=O)c(-c3cc(F)ccc3Cl)c(C)c3cnc(Nc4ccc(N5CCN(C)CC5)c(C)c4)nc32)C1 (stereo in doubt; 8p-B) | > 1 | 0.0371 | 
CCC(=O)N1CCC[C@@H](n2c(=O)c(-c3ccc(F)cc3Cl)c(C)c3cnc(Nc4ccc(N5CCN(C)CC5)c(C)c4)nc32)C1 (stereo in doubt; 8q-A) | > 1 | 0.224 | 
CCC(=O)N1CCC[C@@H](n2c(=O)c(-c3ccc(F)cc3Cl)c(C)c3cnc(Nc4ccc(N5CCN(C)CC5)c(C)c4)nc32)C1 (stereo in doubt; 8q-B) | > 1 | 0.0886 | 
CCC(=O)N1CCC[C@@H](n2c(=O)c(-c3cccc(F)c3Cl)c(C)c3cnc(Nc4ccc(N5CCN(C)CC5)c(C)c4)nc32)C1 (stereo in doubt; 8r-B) |  |  | solubility [4]: Soluble; permeability [5]: Permeable; inhibition (INH) [6]: Not Active; inhibition [7]: Active; IC50 (BaF3): 0.662 µM; Stability [8]: Unstable
